Results: patent US12187728B2 (Raze Therapeutics, Inc., priority 2015, dated 2025)

Target: T1, Human MTHFD2 (Homo sapiens, UniProt P13995)
T1 construct: residues 36-350 in Uniport ID P13995; His6 (N); made in house; host or cells: E. coli
T1 sequence (P13995 36-350): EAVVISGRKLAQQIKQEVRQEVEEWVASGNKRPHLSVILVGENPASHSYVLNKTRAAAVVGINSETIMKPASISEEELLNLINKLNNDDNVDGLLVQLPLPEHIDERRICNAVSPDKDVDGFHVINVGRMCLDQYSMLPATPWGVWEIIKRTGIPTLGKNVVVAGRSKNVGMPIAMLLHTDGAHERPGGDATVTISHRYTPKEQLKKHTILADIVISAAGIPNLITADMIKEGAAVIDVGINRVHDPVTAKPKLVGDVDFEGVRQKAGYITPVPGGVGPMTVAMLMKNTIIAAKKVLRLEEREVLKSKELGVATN
Test: MTHFD2 Activity Assay (dehydrogenase activity, diaphorase/resazurin coupled fluorescence)
Format: biochemical
Settings: inhibitory activity (IC50 and/or binding constant); 0.2 nM MTHFD2, 11 concentrations
In short: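 Resorufin fluorescence (ex 525, em 598 nm) reports NADH formed by the dehydrogenase via diaphorase coupling. Enzyme (0.2 nM, residues 36-350, N-His6) sat with compound 15 min before 70 μM CH2-THF and 1 mM NAD+ started a 30 min reaction. IC50s come from 4-parameter fits over 11 concentrations.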

| SMILES | IC50 [nM] |
| --- | --- |
| Cn1c(Cn2c(=O)c3c(nc(N)n3C)n(C)c2=O)cc2cc(Cl)ccc21 [Example 237, 8-amino-1-((5-chloro-1-methyl-1H-indol-2-yl)methyl)-3,7-dimethyl-1H-purine-2,6(3H,7H)-dione] | 1000 to 5000 |
| C[C@H](O)CNc1nc2c(c(=O)n(Cc3ccc(C(F)(F)F)cc3)c(=O)n2C)n1C [Example 36, 8-{[(2S)-2-hydroxypropyl]amino}-3,7-dimethyl-1-{[4-(trifluoromethyl)phenyl]methyl}-2,3,6,7-tetrahydro-1H-purine-2,6-dione] | 5000 to 10000 |
| Cn1c(N[C@H]2CC[C@@H](C(=O)O)CC2)nc2c1c(=O)n(Cc1ccc(Cl)c(Cl)c1)c(=O)n2C [Example 264, (±)-(cis)-4-((1-(3,4-dichlorobenzyl)-3,7-dimethyl-2,6-dioxo-2,3,6,7-tetrahydro-1H-purin-8-yl)amino)cyclohexanecarboxylic acid] | 10 to 1000 |
| Cn1c(Nc2ncn[nH]2)nc2c1c(=O)n(Cc1cc3ccccc3[nH]1)c(=O)n2C [Example 195, 1-((1H-indol-2-yl)methyl)-8-(2H-1,2,4-triazol-3-ylamino)-3,7-dimethyl-1H-purine-2,6(3H,7H)-dione] | 1000 to 5000 |
| Cn1c(N[C@H]2CCNC2)nc2c1c(=O)n(Cc1ccc(Cl)c(Cl)c1)c(=O)n2C [Example 61, 1-[(3,4-dichlorophenyl)methyl]-3,7-dimethyl-8-{[(3S)-pyrrolidin-3-yl]amino}-2,3,6,7-tetrahydro-1H-purine-2,6-dione] | 1000 to 5000 |
| Cn1c(Nc2cccc(C(=O)O)c2)nc2c1c(=O)n(Cc1cc3c(Cl)cccc3[nH]1)c(=O)n2C [Example 346, 3-[[1-[(4-chloro-1H-indol-2-yl)methyl]-3,7-dimethyl-2,6-dioxo-purin-8-yl]amino]benzoic acid] | 10 to 1000 |
| CCn1c(=O)n(Cc2cc3c(Cl)cccc3[nH]2)c(=O)c2c1nc(Nc1ccncc1)n2C [Example 361, 1-((4-chloro-1H-indol-2-yl)methyl)-3-ethyl-7-methyl-8-(pyridin-4-ylamino)-1H-purine-2,6(3H,7H)-dione] | 10 to 1000 |
| Cn1c(Nc2cccc(C3CC(O)C3)n2)nc2c1c(=O)n(Cc1ccc(Cl)c(Cl)c1)c(=O)n2C (stereo not shown) [Example 352, 1-(3,4-diclorobenzyl)-8-(6-(3-hydroxycyclobutyl)pyridine-2-ylamino)-3,7-dimethyl-1H-purine-2,6(3H,7H)-dione] | 1000 to 5000 |
| Cn1c(NC2CCNC(=O)C2)nc2c1c(=O)n(Cc1cc3ccccc3[nH]1)c(=O)n2C (racemic) [Example 215, (±)-1-((1H-indol-2-yl)methyl)-3,7-dimethyl-8-(2-oxopiperidin-4-ylamino)-1H-purine-2,6(3H,7H)-dione] | 10 to 1000 |
| Cn1c(NC(C(=O)O)C2CCCCC2)nc2c1c(=O)n(Cc1ccc(C(F)(F)F)cc1)c(=O)n2C (stereo not shown) [Example 151, 2-cyclohexyl-2-((3,7-dimethyl-2,6-dioxo-1-(4-(trifluoromethyl)benzyl)-2,3,6,7-tetrahydro-1H-purin-8-yl)amino)acetic acid] | > 10000 |
| Cn1c(Nc2ccccn2)nc2c1c(=O)n(Cc1ccc(Cl)c(Cl)c1)c(=O)n2C [Example 146, 1-(3,4-dichlorobenzyl)-3,7-dimethyl-8-(pyridin-2-ylamino)-1H-purine-2,6(3H,7H)-dione] | 10 to 1000 |
| Cn1c([C@H](N)Cc2ccccn2)nc2c1c(=O)n(Cc1cc3c(Cl)cccc3[nH]1)c(=O)n2C [Example 472, (R)-8-(1-amino-2-(pyridin-2-yl)ethyl)-1-((4-chloro-1H-indol-2-yl)methyl)-3,7-dimethyl-1H-purine-2,6(3H,7H)-dione] | 10 to 1000 |
| Cn1c(=O)n(Cc2cc3c(Cl)cccc3[nH]2)c(=O)c2c1nc(NC1CCCC(C(=O)O)C1)n2CCN (stereo not shown) [Example 418, 3-(7-(2-aminoethyl)-1-((4-chloro-1H-indol-2-yl)methyl)-3-methyl-2,6-dioxo-2,3,6,7-tetrahydro-1H-purin-8-ylamino)cyclohexanecarboxylic acid] | 10 to 1000 |
| Cn1c(NS(C)(=O)=O)nc2c1c(=O)n(Cc1cc3c(Cl)cccc3[nH]1)c(=O)n2C [Example 336, N-[1-[(4-chloro-1H-indol-2-yl)methyl]-3,7-dimethyl-2,6-dioxo-purin-8-yl]methanesulfonamide] | 10 to 1000 |
| CCn1c(=O)n(Cc2ccc(Cl)c(Cl)c2)c(=O)c2c1ncn2C [Example 250, 1-(3,4-dichlorobenzyl)-3-ethyl-7-methyl-1H-purine-2,6(3H,7H)-dione] | 5000 to 10000 |
| Cn1c(N[C@H]2CCC[C@H](C(=O)O)C2)nc2c1c(=O)n(Cc1ccc(Cl)c(Cl)c1)c(=O)n2C (single isomer, unassigned) [Example 209, (1S,3S)-3-(1-(3,4-dichlorobenzyl)-3,7-dimethyl-2,6-dioxo-2,3,6,7-tetrahydro-1H-purin-8-ylamino)cyclohexanecarboxylic or (1R,3R)-3-(1-(3,4-dichlorobenzyl)-3,7-dimethyl-2,6-dioxo-2,3,6,7-tetrahydro-1H-purin-8-ylamino)cyclohexanecarboxylic acid] | 10 to 1000 |

The next lines start with the values.

| IC50 [nM] | SMILES |
| --- | --- |
| 10 to 1000 | Cn1c(Nc2ccnc([C@H]3C[C@@H]3C(N)=O)c2)nc2c1c(=O)n(Cc1ccc(Cl)c(Cl)c1)c(=O)n2C (racemic) [Example 296, (±)-trans-2-(4-((1-(3,4-Dichlorobenzyl)-3,7-dimethyl-2,6-dioxo-2,3,6,7-tetrahydro-1H-purin-8-yl)amino)pyridin-2-yl)cyclopropanecarboxamide] |
| 10 to 1000 | Cn1c(NC[C@H](O)CO)nc2c1c(=O)n(Cc1ccc(Cl)c(Cl)c1)c(=O)n2C [Example 14, 1-[(3,4-dichlorophenyl)methyl]-8-{[(2S)-2,3-dihydroxypropyl]amino}-3,7-dimethyl-2,3,6,7-tetrahydro-1H-purine-2,6-dione] |
| 10 to 1000 | CNC(=O)CCc1cccc(Nc2nc3c(c(=O)n(Cc4cc5c(Cl)cccc5[nH]4)c(=O)n3C)n2C)n1 [Example 330, 3-(6-(1-((4-chloro-1H-indol-2-yl)methyl)-3,7-dimethyl-2,6-dioxo-2,3,6,7-tetrahydro-1H-purin-8-ylamino)pyridin-2-yl)-N-methylpropanamide] |
| 1000 to 5000 | Cn1c(NCC2(O)CCCCC2)nc2c1c(=O)n(Cc1ccc(Cl)c(Cl)c1)c(=O)n2C [Example 106, 1-(3,4-dichlorobenzyl)-8-((1-hydroxycyclohexyl)methylamino)-3,7-dimethyl-1H-purine-2,6(3H,7H)-dione] |
| 1000 to 5000 | Cn1c(Nc2ccnc(C(F)(F)F)c2)nc2c1c(=O)n(Cc1cc3c(Cl)cccc3[nH]1)c(=O)n2C [Example 334, 1-[(4-chloro-1H-indol-2-yl)methyl]-8-[(2-trifluoromethyl-4-pyridyl)amino]-3,7-dimethyl-purine-2,6-dione] |
| 10 to 1000 | Cn1c(NC2CCOCC2)nc2c1c(=O)n(Cc1ccc(Cl)c(Cl)c1)c(=O)n2C [Example 48, 1-[(3,4-dichlorophenyl)methyl]-3,7-dimethyl-8-[(oxan-4-yl)amino]-2,3,6,7-tetrahydro-1H-purine-2,6-dione] |
| 10 to 1000 | Cn1c(N[C@H]2C[C@H](C(=O)O)C2)nc2c1c(=O)n(Cc1ccc(Cl)c(Cl)c1)c(=O)n2C [Example 266] |
| 10 to 1000 | Cn1c(N[C@@H]2CCC[C@@H]2C(=O)O)nc2c1c(=O)n(Cc1ccc(Cl)c(Cl)c1)c(=O)n2C [Example 111, (1S,2R)-2-(1-(3,4-dichlorobenzyl)-3,7-dimethyl-2,6-dioxo-2,3,6,7-tetrahydro-1H-purin-8-ylamino)cyclopentanecarboxylic acid] |
| 10 to 1000 | C[C@H](O)CNc1nc2c(c(=O)n(Cc3ccc(Cl)c(Cl)c3)c(=O)n2C)n1C [Example 8, 1-[(3,4-dichlorophenyl)methyl]-8-{[(2S)-2-hydroxypropyl]amino}-3,7-dimethyl-2,3,6,7-tetrahydro-1H-purine-2,6-dione] |
| 1000 to 5000 | Cn1cnc2c1c(=O)n(Cc1cc3ccccc3n1C)c(=O)n2C [Example 235, 3,7-dimethyl-1-((1-methyl-1H-indol-2-yl)methyl)-1H-purine-2,6(3H,7H)-dione] |
| 5000 to 10000 | Cn1c(NCCS(N)(=O)=O)nc2c1c(=O)n(Cc1ccc(Cl)c(Cl)c1)c(=O)n2C [Example 102, 2-(1-(3,4-dichlorobenzyl)-3,7-dimethyl-2,6-dioxo-2,3,6,7-tetrahydro-1H-purin-8-ylamino)ethanesulfonamide] |
| 10 to 1000 | CC(c1nc2c(c(=O)n(Cc3cc4c(Cl)cccc4[nH]3)c(=O)n2C)n1C)N(C)C (stereo not shown) [Example 457, 1-[(4-chloro-1H-indol-2-yl)methyl]-8-[1-(dimethylamino)ethyl]-3,7-dimethyl-purine-2,6-dione] |
| 10 to 1000 | Cn1c(Cn2c(=O)c3c(nc(N4CCC(O)CC4)n3C)n(C)c2=O)cc2cc(Cl)ccc21 [Example 196, 1-((5-chloro-1-methyl-1H-indol-2-yl)methyl)-8-(4-hydroxypiperidin-1-yl)-3,7-dimethyl-1H-purine-2,6(3H,7H)-dione] |
| 10 to 1000 | Cn1c(CCN2CCOCC2)nc2c1c(=O)n(Cc1ccc(Cl)c(Cl)c1)c(=O)n2C [Example 159, 1-(3,4-dichlorobenzyl)-3,7-dimethyl-8-(2-morpholinoethyl)-1H-purine-2,6(3H,7H)-dione] |
| 10 to 1000 | Cn1c(Nc2ccnc(C3CC(CO)C3)c2)nc2c1c(=O)n(Cc1ccc(Cl)c(Cl)c1)c(=O)n2C (stereo not shown) [Example 320, 1-(3,4-dichlorobenzyl)-8-(2-(3-(hydroxymethyl)cyclobutyl)pyridin-4-ylamino)-3,7-dimethyl-1H-purine-2,6(3H,7H)-dione] |
